{"source": "patent US4999354A", "about": "“Imidazoquinoxaline compounds and their preparation and use” (A/S Ferrosan, priority 1987, dated 1991)", "test_system": "benzodiazepine receptors", "assay": "in vivo displacement of 3H-flunitrazepam from brain benzodiazepine receptors in mice", "set-up": "species or system mice (female, NMR)", "conditions": "test substance intraperitoneally 15 min before 3H-FNM i.v., forebrains taken 20 min after 3H-FNM", "procedure": "The ED50 value represents the dose (mg/kg) of a test substance which causes the specific binding of flunitrazepam to benzodiazepine receptors in a living brain to be reduced to 50% of the control value.\nSuch an in vivo test is carried out as follows:\nResults. The ED50 value is determined from dose response curves.", "data": [{"smiles": "CC(C)n1c(=O)c2c(-c3nc(C4CC4)no3)ncn2c2ccccc21", "note": "[Compound 6, 3-(3-cyclopropyl-1,2,4-oxadiazol-5-yl)-4,5-dihydro-5-isopropyl-4-oxo-imidazo[1,5-a] quinoxaline]", "values": [{"measurement": "ED50 (dose that inhibits 50% of specific 3H-flunitrazepam binding to brain benzodiazepine receptors)", "value": 0.28, "unit": "mg/kg"}]}]}
